± gives the expanded uncertainty stated by the source.
Experiment: wn = mass fraction of the nth substance listed
Details: w1 = 0.0516; for surface tension liquid-gas: Maximal bubble pressure; for viscosity / mass density: 101 kPa, Liquid; for viscosity: Capillary tube (Ostwald / Ubbelohde) method; for mass density: Pycnometric method

C1CNCCN1 [piperazine] + O
Details	mass density [kg/m3]	surface tension liquid-gas [mN/m]	viscosity [mPa·s]
303.15 K	998.03 ± 0.4	68.55 ± 0.54	0.948 ± 0.009
313.15 K	994.71 ± 0.44	66.97 ± 0.53	0.75 ± 0.007
323.15 K	990.08 ± 0.47	65.1 ± 0.52	0.616 ± 0.006

— the NIST ThermoML archive (doi:10.1021/je400405m)
